The nature of the data set: Pharmacokinetic profiles by cassette dosing in dog (IV and PO). Particulars: male beagle dogs, 1 mg/kg; for bioavailability: read-out: F (PO), percent bioavailability. Format: in vivo. The procedure: The pharmacokinetic profiles of EXAMPLE 20, EXAMPLE 22, EXAMPLE 29 and EXAMPLE 31 were evaluated using cassette dosing protocols in dog. The cassette dosing protocol in dogs combined three test compounds with the reference compound (EXAMPLE 104 of commonly-owned U.S. Pat. No. 5,866,549), each at a dose of 1 mg/kg. The compounds for each cassette were formulated as a solution in an aqueous vehicle containing 10% ethanol and one equivalent hydrochloric acid. Groups of three male beagle dogs received either an intravenous dose (IV) or an oral dose (PO). Sequential blood samples were taken from each animal for 24 hours after dosing. The plasma concentrations of the test compound and reference compounds were simultaneously determined using HPLC-MS/MS following liquid-liquid extraction of the samples. The results are shown in TABLE 2, in which […] is plasma clearance; T1/2 and Tmax are expressed in hours; Cmax is expressed in μg/mL; AUC is expressed in μg·h/mL; F is percent bioavaibility; and volumes of distibution Vc and Vβ are volume of the central compartment and terminal phase distribution, respectively.

Where two headings read alike, the source gives them in different places.

Usually AUC stands for concentration integrated over time. Usually Cmax stands for the maximum level reached in the sampled fluid or tissue. Usually Tmax stands for the time at which the peak concentration occurs. As usually defined, the bioavailability is the share of a dose that reaches the circulation, judged against a reference dose that is usually intravenous.

`CC[C@H]1OC(=O)[C@H](C)C(=O)[C@H](C)[C@@H](O[C@@H]2O[C@H](C)C[C@H](N(C)C)[C@H]2O)C(C)(OCC#Cc2ccc(-c3nnn(C)n3)s2)C[C@@H](C)C(=O)[C@H](C)[C@H]2NC(=O)O[C@@]21C` (stereo in doubt) [7B, (3aS,4R,7R,9R,10R,11S,13R,15R,15aR)-10-(((2S,3R,4S,6R)-4-(dimethylamino)-3-hydroxy-6-methyltetrahydro-2H-pyran-2-yl)oxy)-4-ethyl-3a,7,9,11,13,15-hexamethyl-11-((3-(5-(2-methyl-2H-tetraazol-5-yl)thien-2-yl)prop-2-ynyl)oxy)octahydro-2H-oxacyclotetradecino[4,3-d][1,3]oxazole-2,6,8,14(1H,7H,9H)-tetrone]: under “dog, in vivo, intravenous dose, read-out: AUC (IV)”, the AUC amounted to 11900 ng·h/mL. For the setting “dog, in vivo, intravenous dose, read-out: CLp (IV), plasma clearance (converted)”, the clearance is 1.5 mL/min/kg. Further, where the note is “dog, in vivo, intravenous dose, read-out: T½ (IV) (converted)”, the half-life was 9 h. For the same compound, for the setting “dog, in vivo, oral dose”, the Cmax was 720 ng/mL, the Tmax was 1.3 h and the bioavailability turned out to be 80.3%. Besides, for the setting “dog, in vivo, oral dose, read-out: AUC (PO)”, the AUC was found to be 9660 ng·h/mL. Moreover, under “dog, in vivo, oral dose, read-out: T½ (PO) (converted)”, the half-life is 6.7 h. Further, under “intravenous dose”, the “Vc (IV), volume of the central compartment” value (“Vc (IV), volume” below) is recorded as 0.9 and the “Vβ (IV), terminal phase distribution volume” value (“Vβ (IV)” for short) is given as 1.2.

On to `CC[C@H]1OC(=O)[C@@](C)(F)C(=O)[C@H](C)[C@@H](O[C@@H]2O[C@H](C)C[C@H](N(C)C)[C@H]2O)[C@@](C)(OCC#Cc2ccc(-c3nnn(C)n3)s2)C[C@@H](C)C(=O)[C@H](C)[C@H]2NC(=O)O[C@@]21C` [3B, (3aS,4R,7S,9R,10R,11S,13R,15R,15aR)-10-(((2S,3R,4S,6R)-4-(dimethylamino)-3-hydroxy-6-methyltetrahydro-2H-pyran-2-yl)oxy)-4-ethyl-7-fluoro-3a,7,9,11,13,15-hexamethyl-11-((3-(5-(2-methyl-2H-tetraazol-5-yl)thien-2-yl)prop-2-ynyl)oxy)octahydro-2H-oxacyclotetradecino [4,3-d][1,3]oxazole-2,6,8,14(1H,7H,9H)-tetrone], for which the bioavailability (dog, plasma, oral dose) was 73.6%. Also, for the setting “intravenous dose”, the “AUC (IV)” value turned out to be 7290 ng·h/mL; the “CLp (IV), plasma clearance” value amounted to 0.16; the “T½ (IV)” value came to 14.4 h; the “Vc (IV), volume” value is 1.6. For the same compound, under “intravenous dose”, the “Vβ (IV)” value turned out to be 3.1. For the same compound, where the note is “oral dose”, the “AUC (PO)” value came to 5140 ng·h/mL, the “Cmax (PO)” value is 250 ng/mL, the “Tmax (PO)” value was 2 h and the “T½ (PO)” value is 11.1 h.

As for `CC[C@H]1OC(=O)[C@H](C)C(=O)[C@H](C)[C@@H](O[C@@H]2O[C@H](C)C[C@H](N(C)C)[C@H]2O)[C@@](C)(OC/C=C/c2ccc(-c3nnn(C)n3)s2)C[C@@H](C)C(=O)[C@H](C)[C@H]2NC(=O)O[C@@]21C` [4B, (3aS,4R,7R,9R,10R,11S,13R,15R,15aR)-10-(((2S,3R,4S,6R)-4-(dimethylamino)-3-hydroxy-6-methyltetrahydro-2H-pyran-2-yl)oxy)-4-ethyl-3a,7,9,11,13,15-hexamethyl-11-(((2E)-3-(5-(2-methyl-2H-tetraazol-5-yl)thien-2-yl)prop-2-enyl)oxy)octahydro-2H-oxacyclotetradecino[4,3-d][1,3]oxazole-2,6,8,14(1H,7H,9H)-tetrone], for the setting “dog, plasma, oral dose”, the bioavailability was found to be 63%. Further, for the setting “intravenous dose”, the “AUC (IV)” value amounted to 11520 ng·h/mL; the “CLp (IV), plasma clearance” value is 0.09; the “T½ (IV)” value is 8.4 h; the “Vc (IV), volume” value was found to be 0.9. Under “intravenous dose”, the “Vβ (IV)” value is reported as 1.1. Moreover, where the note is “oral dose”, the “AUC (PO)” value stood at 6770 ng·h/mL, the “Cmax (PO)” value came to 490 ng/mL, the “Tmax (PO)” value was 1.5 h and the “T½ (PO)” value stood at 7.8 h.

On to `CC[C@H]1OC(=O)[C@@](C)(F)C(=O)[C@H](C)[C@@H](O[C@@H]2O[C@H](C)C[C@H](N(C)C)[C@H]2O)[C@@](C)(OC/C=C/c2ccc(-c3nnn(C)n3)s2)C[C@@H](C)C(=O)[C@H](C)[C@H]2NC(=O)O[C@@]21C` [8B, (3aS,4R,7S,9R,10R,11S,13R,15R,15aR)-10-(((2S,3R,4S,6R)-4-(dimethylamino)-3-hydroxy-6-methyltetrahydro-2H-pyran-2-yl)oxy)-4-ethyl-7-fluoro-3a,7,9,11,13,15-hexamethyl-11-(((2E)-3-(5-(2-methyl-2H-tetraazol-5-yl)thien-2-yl)prop-2-enyl)oxy)octahydro-2H-oxacyclotetradecino[4,3-d][1,3]oxazole-2,6,8,14(1H,7H,9H)-tetrone], for which, where the note is “dog, plasma, oral dose”, the bioavailability was found to be 81.1%. Where the note is “intravenous dose”, the “AUC (IV)” value was 16130 ng·h/mL; the “CLp (IV), plasma clearance” value is 0.07; the “T½ (IV)” value is 22.9 h; the “Vc (IV), volume” value came to 1.1. In addition, the “Vβ (IV)” value (intravenous dose) was found to be 2.3. Besides, for the setting “oral dose”, the “AUC (PO)” value worked out at 12600 ng·h/mL, the “Cmax (PO)” value was found to be 480 ng/mL, the “Tmax (PO)” value was found to be 4.5 h and the “T½ (PO)” value amounted to 17.2 h.

The values above are taken from US20030207820A1, “Antibacterial compounds with improved pharmacokinetic profiles” (priority 2002, published 2003).
